Where two headings read alike, the source gives them in different places.
Tested on: adhesion of U937 cells to human umbilical venous endothelial cells (HUVEC)
Test: Inhibitory effect on cell adhesion (fluorescence-labeled U937 adhered to IL-1β- or TNFα-stimulated HUVEC)
Assay type: cell-based
Conditions: compound at 1 μM
Method: (Inhibitory Effect on Cell Adhesion)
This test was conducted by reference to the method of Ross et al. (J. Biol. Chem., 267, 8537-8543 (1992)). More specifically, after human umbilical venous endothelial cells (HUVEC) were cultured on a 48-well plate to confluent growth, IL-1β or TNFα was added thereto. Upon elapsed time of 5 hours after the addition, U937, which is a human monocytic/histocytic cell fluorescence-labeled with PKH2 (product of Dainippon Pharmaceutical Co., Ltd.), was added in a proportion of 1×10^6 cells per well. After the plate was left at rest at room temperature for 1 hour, unadhered U937 was washed out and lysed in 1% Triton X-100 to measure a remaining fluorescence intensity (excitation wavelength: 480 nm; measuring wavelength: 530 nm). HUVEC and U937 were cultured in EGM-2 (product of Sanko Junyaku K.K.) and 10% FCS-containing RPMI1640, respectively. Each test agent was added to HUVEC upon the addition of IL-1β or TNFα and to U937 24 hours prior to the cell adhesion test. The inhibitory activity was calculated out according to the equation [100−(C−B)/(A−B)×100(%)], wherein A is the number of U937 cells adhered to HUVEC stimulated by IL-1β or TNFα when no test agent was added, B is the number of U937 cells adhered to HUVEC not stimulated by IL-1β or TNFα when no test agent was added, and C is the number of U937 cells adhered to HUVEC stimulated by IL-1β or TNFα when the test agent was added. As control compounds, Test Compound 1 described in Japanese Patent Application Laid-Open No. 9-143075 and dilazep described in Japanese Patent Application Laid-Open No. 11-92382 were simultaneously evaluated.

[1] = U937 adhesion to HUVEC stimulated by IL-1β, read-out: Percent inhibition (%) Stimulation by IL-1β
[2] = U937 adhesion to HUVEC stimulated by TNFα, read-out: Percent inhibition (%) Stimulation by TNFα

Compound | inhibition at 1 µM [1] | inhibition at 1 µM [2]
COc1cc(C(=O)OCCCN2CCCN(CCCOC(=O)c3cc(OC)c(OC)c(OC)c3)CC2)cc(OC)c1OC [Dilazep, dilazep, reference compound] | 0% | 12%
COc1cc(-c2cccc(CN3CCN(Cc4ccnc(-c5cc(OC)c(OC)c(OC)c5)c4)CC3)c2)cc(OC)c1OC [Example 18, N-[3-(3,4,5-trimethoxyphenyl)benzyl]-N′-[[2-(3,4,5-trimethoxyphenyl)pyridin-4-yl]methyl]piperazine difumarate] | 37% | 54%
COc1cc(-c2cccc(CN3CCCN(Cc4ccnc(-c5cc(OC)c(OC)c(OC)c5)c4)CC3)c2)cc(OC)c1OC [Example 19, N-[3-(3,4,5-trimethoxyphenyl)benzyl]-N′-[[2-(3,4,5-trimethoxyphenyl)pyridin-4-yl]methyl]homopiperazine difumarate] | 33% | 58%
COc1cc(-c2cc(CN3CCN(Cc4ccnc(-c5ccccc5)c4)CC3)ccn2)cc(OC)c1OC [Example 21, N-[(2-phenylpyridin-4-yl)methyl]-N′-[[2-(3,4,5-trimethoxyphenyl)pyridin-4-yl]methyl]piperazine difumarate] | 44% | 60%
COc1ccc(-c2cc(CN3CCN(Cc4ccnc(-c5cc(OC)c(OC)c(OC)c5)c4)CC3)ccn2)cc1 [Example 25, N-[[2-(4-methoxyphenyl)pyridin-4-yl]methyl]-N′-[[2-(3,4,5-trimethoxyphenyl)pyridin-4-yl]methyl]-piperazine difumarate] | 78% | 70%
COc1ccc(-c2cc(CN3CCN(Cc4ccnc(-c5cc(OC)c(OC)c(OC)c5)c4)CC3)ccn2)cc1OC [Example 26, N-[[2-(3,4-dimethoxyphenyl)pyridin-4-yl]methyl]-N′-[[2-(3,4,5-trimethoxyphenyl)pyridin-4-yl]methyl]piperazine difumarate] | 75% | 69%
COc1cc(-c2cc(CN3CCN(CCc4ccc5c(OC)c(OC)c(OC)cc5c4)CC3)ccn2)cc(OC)c1OC [Example 37, N-[2-(5,6,7-trimethoxynaphthalen-2-yl)ethyl]-N′-[[2-(3,4,5-trimethoxyphenyl)pyridin-4-yl]methyl]-piperazine dimaleate] | 68% | 56%
COc1cc(-c2cc(CN3CCN(Cc4ccc5c(OC)c(OC)c(OC)cc5c4)CC3)ccn2)cc(OC)c1OC [Example 38, N-[(5,6,7-trimethoxynaphthalen-2-yl)methyl]-N′-[[2-(3,4,5-trimethoxyphenyl)pyridin-4-yl]methyl]-piperazine dimaleate] | 59% | 76%
COc1cc(/C=C/CCCN2CCN(Cc3ccnc(-c4cc(OC)c(OC)c(OC)c4)c3)CC2)cc(OC)c1OC [Example 40, N-[(E)-5-(3,4,5-trimethoxyphenyl)-4-pentenyl-]-N′-[[2-(3,4,5-trimethoxyphenyl)pyridin-4-yl]methyl]piperazine difumarate] | 44% | 55%
COc1cc(/C=C/CCCN2CCCN(Cc3ccnc(-c4cc(OC)c(OC)c(OC)c4)c3)CC2)cc(OC)c1OC [Example 41, N-[(E)-5-(3,4,5-trimethoxyphenyl)-4-pentenyl]-N′-[[2-(3,4,5-trimethoxyphenyl)pyridin-4-yl]methyl]homopiperazine difumarate] | 56% | 67%
COc1cc(-c2cc(CN3CCN(CCC/C=C/c4ccc(F)cc4)CC3)ccn2)cc(OC)c1OC [Example 42, N-[(E)-5-(4-fluorophenyl)-4-pentenyl]-N′-[[2-(3,4,5-trimethoxyphenyl)pyridin-4-yl]methyl]piperazine difumarate] | 54% | 56%
COc1cc(-c2cccc(C(=O)N3CCN(Cc4ccnc(-c5cc(OC)c(OC)c(OC)c5)c4)CC3)c2)cc(OC)c1OC [Example 56, N-[3-(3,4,5-trimethoxyphenyl)benzoyl]-N′-[[2-(3,4,5-trimethoxyphenyl)pyridin-4-yl]methyl]piperazine] | 76% | 52%

Source: patent US6552188B2, “Unsymmetrical cyclic diamine compound” (Kowa Co., Ltd., priority 2001, dated 2003)
